Consider three molecules from patent US7906332B2, “Method of preparing basement membrane, method of constructing basement membrane specimen, reconstituted artificial tissue using the basement membrane specimen and process for producing the same” (Japan Science And Technology Agency, priority 2001, dated 2011).

Assay [1] deals with alveolar epithelial cells. Description: Construction of a basement membrane according to the MMP inhibition method. It is filed as cell-based. Conditions: 2 weeks on fib, 1% fetal bovine serum, no basement membrane components added. The procedure:
Alveolar epithelial cells were cultured on collagen fiber (fib) with the only addition of 1% fetal bovine serum and synthetic inhibitor of matrix metalloproteinase (MMP) and without the addition of basement membrane components for 2 weeks. As MMP inhibitor, GM6001 (Calbiochem) and MMP-2/MMP-9 inhibitor I (Calbiochem) were used. 1.1 μM of GM6001 and 310 μM of MMP-2/MMP-9 inhibitor I (2/9 inhibitor) were added respectively.

Assay [2] has as its system type II alveolar epithelial cells. Description: Basement membrane formation by alveolar epithelial cells on collagen fiber (fib) with Matrigel or TGF-β (T2-fib-MG, T2-fib-TGFβ). The class given is cell-based, rat. Conditions: fibrous collagen substratum, TGF-β in upper and lower wells (T2-fib-TGFβ). An excerpt: The present inventors made a study on a process to form a basement membrane structure just beneath the basal surface of epithelial cells on a fibrous collagen matrix by the coculture with fibroblasts-embedded collagen gel, and by the culture in the presence of TGF-β or Matrigel. […] However, it was also confirmed that type II alveolar epithelial cells were unable to constitute a basement membrane without the supply of, for example, a fibroblast, exogenous basement membrane components from Matrigel or a growth factor TGF-β, since the endogenous basement membrane components from type II alveolar epithelial cells are not enough for the cells to assemble a basement membrane structure effectively. […]

With `CNC(=O)[C@H](Cc1c[nH]c2ccccc12)NC(=O)[C@@H](CC(=O)NO)CC(C)C` [GM6001], in assay [1] (1.1 μM), the “basement membrane structure formation beneath the cells” value is “complete basement membrane structure (▴) was formed”.
On to TGF-β, for which, in assay [2], the “basement membrane formation by type II alveolar epithelial cells” value is recorded as “a basement membrane was formed”.
For the molecule `O=C(O)[C@@H](Cc1ccccc1)NS(=O)(=O)c1ccc(-c2ccccc2)cc1` [MMP-2/MMP-9 inhibitor I], the “basement membrane structure formation beneath the cells” value in assay [1] (310 μM) is “complete basement membrane structure (▴) was formed”.
